Where “and” joins values, the source holds several entries; their conditions need not be identical. Equal values may be shown once. Read-outs that look alike come from different tables or passages of the source.
Columns and labels:
[1] = molecular target: T1, soluble extracellular portion of CD4 (sCD4) (Homo sapiens, UniProt P01730); experiment: sCD4 tryptophan fluorescence titration; format: binding; details: for Kd: pH 7.4, single site binding isotherm; for quenching of sCD4 tryptophan fluorescence / red shift of the emission peak: saturating concentrations of PA analog
T1 construct: soluble extracellular portion of CD4 (sCD4); purchased Progenics Pharmaceuticals, Inc
Protocol: The tryptophan fluorescence of the soluble extracellular portion of CD4 (sCD4) was used to estimate binding affinity of PA analogs for sCD4 in-vitro (Figure 2).
Figure 2 In vitro experiments of PA analogs binding to sCD4. Binding isotherm of the sCD4 tryptophan fluorescence at the wavelength of 350 nm with the increasing concentration of A) 2-BP, B) 6-AP, and C) SP; D) stoichiometric binding of 2-BP to sCD4. Tryptophan fluorescence was measured using an excitation wavelength of 280 nm. In all cases, we observed tryptophan fluorescence quenching of sCD4 by the increasing concentration of PA analogs. During stoichiometric binding experiment the concentration of sCD4 was kept at 200 nM, which is well above the dissociation constant of 2-BP-sCD4, 74 nM. Curve fitting (OriginLab) was performed to find the best values for Kd using a single site binding isotherm approximation.
Since PA analogs form micelles at micromolar concentration it was important to characterize binding stoichiomentry of PA analogs to CD4 (Figure 2D). […] The concentration of sCD4 was kept at 200 nM, which is well above the 74 nM dissociation constant of 2-BP-CD4. In this case, titrated 2-BP was fully bound. The observed changes in sCD4 fluorescence would level off when 2-BP-sCD4 reached proper stoichiometry.
Measurements were performed on a Fluorolog-3 fluorescence spectrophotometer (HORIBA Jobin Yvon) at 25°C in a 1-ml stirred cuvette. For fluorescence titration experiments, 100 nM of sCD4 dissolved in 10 mM phosphate buffer [pH 7.4] and 250 mM NaCl was used, and 100 µM solution of PA analogs, 2-BP, 6-AP, and SP dissolved in dimethylsulfoxide (DMSO) was added in 10 nM steps. Titrations in the absence of sCD4 and in the absence PA analogs were performed as reference. Tryptophan fluorescence was measured using an excitation wavelength of 280 nm. The fluorescence emission signal was subtracted from the signal of the reference titrations, and the differences adjusted by the dilution factor were plotted against the final concentration of added PA analogs. Curve fitting (OriginLab) was performed to find the best values for Kd using a single site binding isotherm approximation.

gp120 (IIIB)-CD4 complex = molecular target: T2, gp120 (IIIB)-CD4 complex (Homo sapiens, UniProt P01730); experiment: gp120 capture ELISA, inhibition of gp120-CD4 complex formation; format: binding, HIV-1
T2 construct: soluble extracellular portion of CD4 (sCD4); purchased ImmunoDiagnostics, Inc., MA
Protocol: Figure 3 Inhibition of gp120-CD4 complex formation. Inhibition of gp120-CD4 complex formation was investigated by gp120 capture ELISA. […] Strepavidin-HRP was added, and then developed by addition of o-Phenylenediamine dihydrochloride (OPD) substrate. Colorimetric reaction was stopped by adding 1N HCl, and read at 490 nm. Percent of gp120-CD4 binding was calculated from gp120-CD4 complex formation in the absence of any inhibitor. pKi (-log Ki, M) was calculated and plotted in Prizm (GraphPad Software), and inhibition constant, Ki, was calculated by using the equation Ki = IC50/(1+[CD4]/Kd), based on IC50 concentration of bound CD4, [CD4] = 50 nM, and CD4 binding affinity for gp120, Kd = 5 nM. Representative of three experiments, all data are mean ± SD.
Inhibition of gp120-CD4 complex formation was investigated by CD4-to-gp120 capture ELISA, in accordance with manufacturer's instructions (ImmunoDiagnostics, Inc., MA), and as previously described. […] Strepavidin-HRP was added, and then developed by addition of OPD substrate. Colorimetric reaction was stopped by adding 1N HCl, and read at 490 nm. Percent of gp120-CD4 binding was calculated from gp120-CD4 complex formation in the absence of any inhibitor.

soluble gp120 = molecular target: T3, soluble gp120 (Human immunodeficiency virus type 1 group M subtype B, UniProt P03375); experiment: reverse ELISA: plates coated with sCD4, gp120 incubated with compound; format: binding, HIV-1; details: plates coated with sCD4, gp120 incubated with increasing concentrations (not shown)
T3 construct: purchased

[2] = MTT viability assay in 1G5 cells; format: cell-based; details: human, 1G5 cells, 100 to 10,000 nM, up to 72 h, vs untreated mock control
Protocol: (§1) To ascertain possible toxicity of PA analogs, we tested each analog in cell culture system (Figure 4). 1G5 cells were treated with increasing concentrations of 2-BP, 6-AP, or SP, from 100 to 10,000 nM, and viability was determined by MTT assay at 24 h. (not shown) and at 72 h (Figure 4). Viability for all treatments and at all concentrations tested, remained ≥92% for up to 72 h. of follow-up.
(§2) Figure 4 Viability of PA analogs in tissue culture. 1G5 cells were treated with increasing concentrations of 2-BP, 6-AP, and SP, as indicated, and cell viability was determined 72 h. after treatment by MTT assay. % Viable cells were calculated from untreated mock control, which was taken as 100% viable. Bars indicate ± SD, representative of 2 experiments.
(§3) For determination of viability, 1G5 cells were seeded in 12 well plates at 1×10^6 cells/well, treated with increasing concentrations of PA analogs, from 100 to 10,000 nM (0.1 to 10 µM), as indicated. After 24 and 72 hours, cells were collected and analyzed for viability by a CellTiter 96 Non-Radioactive Cell Proliferation Assay [(3-(4,5-Dimethyl-2-thiazolyl)-2,5 dephenyltetrazolium, Promega,] (MTT) assay, as specified by the manufacturer, and as previously described.

[3] = critical micelle concentration by 1D proton NMR; format: physicochemical
CD4 receptor = details: cited from earlier work
gp120-to-CD4 attachment = molecular target: gp120-to-CD4 attachment; design: method as in submitted for publication; details: ref submitted for publication; read-out: Ki for blocking gp120-to-CD4 attachment; cited from earlier work
X4-tropic HIV-1 = details: primary PBL and macrophages; read-out: IC50 of productive X4-tropic HIV-1 infection; cited from earlier work
R5-tropic HIV-1 [4] = details: primary PBL and macrophages; read-out: IC50 of productive R5-tropic HIV-1 infection; cited from earlier work
R5-tropic HIV-1 [5] = test system: R5-tropic HIV-1; design: method as in submitted for publication; details: ref submitted for publication, cited from earlier work
gp120 = details: cited from earlier work
1G5 cells = experiment: MTT viability assay in 1G5 cells; format: cell-based; details: 100 to 10,000 nM, up to 72 h, vs untreated mock control
Protocol: as §1, §2, §3

[6] = 100 nM sCD4, 25°C, read-out: Kd, dissociation constant for sCD4
[7] = Ki = IC50/(1+[CD4]/Kd), [CD4] = 50 nM, Kd = 5 nM, read-out: Ki, inhibition constant for gp120-CD4 complex formation

Compound | Kd [1, 6] | quenching of sCD4 tryptophan fluorescence [1] [%] | red shift of the emission peak [1] [nm] | Ki (gp120 (IIIB)-CD4 complex; Ki, inhibition constant for gp120-CD4 complex formation, Ki = IC50/(1+[CD4]/Kd), [CD4] = 50 nM, Kd = 5 nM) | inhibition of gp120-CD4 complex formation in reverse experiment (soluble gp120) | viability [2] [%] | cmc, critical micelle concentration [3] [µM] | Kd (CD4 receptor) [µM] | Ki (gp120-to-CD4 attachment) [µM] | IC50 (X4-tropic HIV-1) [µM] | IC50 (R5-tropic HIV-1 [4]) [µM] | inhibition of R5-tropic HIV-1 infection (R5-tropic HIV-1 [5]; cervical explant model of human vagina and submucosa primary PBL and macrophage cells) | toxicity in cervical explant model (R5-tropic HIV-1 [5]; cervical explant model of human vagina) | binding to gp120 (gp120) | Kd ([1]; Kd, dissociation constant for sCD4, 100 nM sCD4, 25°C) | concentration at which fluorescence quenching was saturated ([1]; stoichiometric titration, sCD4 kept at 200 nM) [µM] | Ki (gp120 (IIIB)-CD4 complex; [7]) | Ki (gp120 (IIIB)-CD4 complex; pKi (-log Ki, M), gp120 (IIIB), 50 nM biotin-sCD4, mean ± SD) [µM] | pKi (-log Ki, M) (gp120 (IIIB)-CD4 complex; gp120 (IIIB), 50 nM biotin-sCD4, mean ± SD) | viability (1G5 cells) [%]
CCCCCCCCCCCCCCCC(=O)OC[C@H](O)[C@H]1OC(=O)C(O)=C1O [6-AP, 6-O-Palmitoyl-L-ascorbic acid] | 0.14 µM and ~0.14 µM | 40 | 3 | 0.354 µM and ~0.354 µM | not inhibited | ≥ 92 | 7 | – | – | – | – | – | – | – | – | – | – | – | – | –
CCCCCCCCCCCCCCCC(=O)O [PA, Palmitic acid] | – | – | – | – | – | – | 4 | ~1.5 | ~2.53 | ~0.34 | ~33 | inhibited | without toxicity | does not bind to gp120 | – | – | – | – | – | –
CCCCCCCCCCCCCCC(Br)C(=O)O (centres unmarked) [2-BP, 2-Bromohexadecanoic acid] | – | 50 | 4 | – | not inhibited | ≥ 92 | 5 | – | – | – | – | – | – | – | 0.074 µM and ~0.074 µM | 200 | 0.122 µM and ~0.122 µM | 0.12 | – | –
Sucrose palmitate [SP] | 0.364 µM and ~0.364 µM | 60 | 5 | – | not inhibited | – | 30 | – | – | – | – | – | – | – | – | – | 1.49 µM and ~1.49 µM | – | 5.83 ± 0.15 | ≥ 92
